This is an account of results in the supplement of paper PMC12076712.

Experiment in all cases: pIC50, kinobeads binding competition
For assay [1], the target named is BMPR1B (UniProt O00238). The settings on record: cell material: Lysate mix. An outline of the steps:
(§1)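 Either living Jurkat cells (60 min at 37 °C, then lysis) or lysates (60 min at 4 °C) were treated with nine compound concentrations from a top of 30 μM, in 1:4 steps for cells and 1:5 steps for lysates. The lysates were from Jurkat cells or a 1:1:1:1 mix of HEK293, K-562, HepG2 and placenta. Kinobeads-bound proteins were digested and quantified by TMT10 LC-MS/MS. pIC50 was calculated by logistic dose-response fitting (R drc package) of fold changes relative to vehicle, in biological duplicates.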

Assay [2] addresses T1, MARK4 (UniProt Q96L34).
T1 sequence (whole entry): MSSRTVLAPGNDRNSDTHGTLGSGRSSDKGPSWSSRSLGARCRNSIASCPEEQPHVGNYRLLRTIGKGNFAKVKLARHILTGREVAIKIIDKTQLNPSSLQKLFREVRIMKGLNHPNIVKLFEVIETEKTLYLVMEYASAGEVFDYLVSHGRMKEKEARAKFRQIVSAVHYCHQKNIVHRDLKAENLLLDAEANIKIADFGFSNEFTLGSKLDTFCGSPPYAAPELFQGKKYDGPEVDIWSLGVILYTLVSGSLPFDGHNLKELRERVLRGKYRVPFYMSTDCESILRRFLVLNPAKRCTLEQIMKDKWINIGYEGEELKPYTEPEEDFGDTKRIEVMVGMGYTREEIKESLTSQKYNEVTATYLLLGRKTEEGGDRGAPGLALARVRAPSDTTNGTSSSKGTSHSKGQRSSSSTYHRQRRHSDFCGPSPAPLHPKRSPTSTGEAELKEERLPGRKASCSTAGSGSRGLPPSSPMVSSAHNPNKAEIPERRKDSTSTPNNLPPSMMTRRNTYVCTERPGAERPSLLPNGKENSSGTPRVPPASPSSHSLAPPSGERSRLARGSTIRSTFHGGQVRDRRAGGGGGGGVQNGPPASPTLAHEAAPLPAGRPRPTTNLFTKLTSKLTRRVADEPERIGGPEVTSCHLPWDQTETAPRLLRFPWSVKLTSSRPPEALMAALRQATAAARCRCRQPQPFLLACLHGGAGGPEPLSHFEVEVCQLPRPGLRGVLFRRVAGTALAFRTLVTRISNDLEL
An outline of the steps:
as §1

Assay [3] has as its target T2, NLK (UniProt Q9UBE8).
T2 sequence (whole entry): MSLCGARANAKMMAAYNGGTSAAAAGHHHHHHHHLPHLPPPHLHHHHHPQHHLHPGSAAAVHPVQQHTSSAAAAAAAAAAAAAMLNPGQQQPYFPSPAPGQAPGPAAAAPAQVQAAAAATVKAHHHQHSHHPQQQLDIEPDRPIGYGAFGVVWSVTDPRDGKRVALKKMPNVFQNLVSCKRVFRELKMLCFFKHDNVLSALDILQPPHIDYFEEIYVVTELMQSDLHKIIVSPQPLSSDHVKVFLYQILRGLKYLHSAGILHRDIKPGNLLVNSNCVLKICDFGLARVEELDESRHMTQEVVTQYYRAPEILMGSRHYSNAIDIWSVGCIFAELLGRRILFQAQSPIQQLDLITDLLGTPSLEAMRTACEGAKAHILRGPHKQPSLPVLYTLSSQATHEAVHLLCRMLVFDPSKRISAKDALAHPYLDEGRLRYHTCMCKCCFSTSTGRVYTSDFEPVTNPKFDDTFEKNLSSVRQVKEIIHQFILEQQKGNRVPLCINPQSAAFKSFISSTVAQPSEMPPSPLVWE
An outline of the steps:
as §1

The target in assay [4] is PRKCQ (UniProt Q04759). An outline of the steps:
as §1

Assay [5] concerns the target T3, ULK1 (UniProt O75385).
T3 sequence (whole entry): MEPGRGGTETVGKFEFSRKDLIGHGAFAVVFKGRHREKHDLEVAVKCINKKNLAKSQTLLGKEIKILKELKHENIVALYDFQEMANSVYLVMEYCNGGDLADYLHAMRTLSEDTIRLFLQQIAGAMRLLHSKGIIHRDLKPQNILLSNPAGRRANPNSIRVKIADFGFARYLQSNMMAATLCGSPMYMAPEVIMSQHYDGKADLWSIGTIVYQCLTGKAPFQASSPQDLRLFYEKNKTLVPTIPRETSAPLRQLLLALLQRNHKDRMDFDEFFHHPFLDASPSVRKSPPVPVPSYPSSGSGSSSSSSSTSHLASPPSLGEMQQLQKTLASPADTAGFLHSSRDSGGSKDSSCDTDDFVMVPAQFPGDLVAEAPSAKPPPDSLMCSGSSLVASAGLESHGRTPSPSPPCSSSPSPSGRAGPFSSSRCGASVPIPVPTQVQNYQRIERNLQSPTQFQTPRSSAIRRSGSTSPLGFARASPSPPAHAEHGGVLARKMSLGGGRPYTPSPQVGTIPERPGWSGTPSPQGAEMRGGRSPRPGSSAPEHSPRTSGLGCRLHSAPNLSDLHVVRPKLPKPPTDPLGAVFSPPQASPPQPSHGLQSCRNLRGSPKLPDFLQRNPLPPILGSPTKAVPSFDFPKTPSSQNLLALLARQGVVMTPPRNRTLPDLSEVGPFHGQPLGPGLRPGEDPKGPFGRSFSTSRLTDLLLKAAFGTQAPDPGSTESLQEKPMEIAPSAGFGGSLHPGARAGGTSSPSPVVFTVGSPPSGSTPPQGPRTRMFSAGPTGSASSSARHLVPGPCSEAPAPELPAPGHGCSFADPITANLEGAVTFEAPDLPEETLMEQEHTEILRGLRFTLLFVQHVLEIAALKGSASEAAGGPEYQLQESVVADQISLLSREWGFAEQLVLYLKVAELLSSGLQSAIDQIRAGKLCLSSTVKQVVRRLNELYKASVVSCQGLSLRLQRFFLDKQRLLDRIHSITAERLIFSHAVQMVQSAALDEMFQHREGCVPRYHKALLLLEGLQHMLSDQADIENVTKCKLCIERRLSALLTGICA
An outline of the steps:
as §1

Assay [6] addresses UniProt O75716. An outline of the steps:
as §1

In assay [7] the target is UniProt P51812. An outline of the steps: as §1
UniProt P51812, sequence (P51812 whole entry): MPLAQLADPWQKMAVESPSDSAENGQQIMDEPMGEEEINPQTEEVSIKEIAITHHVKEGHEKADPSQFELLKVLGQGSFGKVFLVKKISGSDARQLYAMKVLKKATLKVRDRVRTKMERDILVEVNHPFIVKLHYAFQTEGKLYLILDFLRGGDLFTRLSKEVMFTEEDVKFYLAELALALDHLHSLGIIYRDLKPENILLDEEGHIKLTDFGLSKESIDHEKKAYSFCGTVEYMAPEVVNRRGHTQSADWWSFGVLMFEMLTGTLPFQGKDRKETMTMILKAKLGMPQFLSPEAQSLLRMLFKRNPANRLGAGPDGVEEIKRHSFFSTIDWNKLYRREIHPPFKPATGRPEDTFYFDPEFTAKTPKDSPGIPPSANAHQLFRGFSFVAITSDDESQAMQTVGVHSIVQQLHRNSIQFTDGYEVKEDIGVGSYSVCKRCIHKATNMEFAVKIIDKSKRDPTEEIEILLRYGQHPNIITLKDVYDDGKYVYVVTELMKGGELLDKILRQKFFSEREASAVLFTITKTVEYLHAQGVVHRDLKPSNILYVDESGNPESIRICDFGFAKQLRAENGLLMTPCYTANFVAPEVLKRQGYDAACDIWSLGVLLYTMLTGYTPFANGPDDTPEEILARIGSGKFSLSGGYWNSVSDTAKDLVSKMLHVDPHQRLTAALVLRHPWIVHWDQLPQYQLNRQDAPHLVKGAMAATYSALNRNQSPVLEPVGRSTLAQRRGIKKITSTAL

BMPR1B, sequence (O00238 whole entry): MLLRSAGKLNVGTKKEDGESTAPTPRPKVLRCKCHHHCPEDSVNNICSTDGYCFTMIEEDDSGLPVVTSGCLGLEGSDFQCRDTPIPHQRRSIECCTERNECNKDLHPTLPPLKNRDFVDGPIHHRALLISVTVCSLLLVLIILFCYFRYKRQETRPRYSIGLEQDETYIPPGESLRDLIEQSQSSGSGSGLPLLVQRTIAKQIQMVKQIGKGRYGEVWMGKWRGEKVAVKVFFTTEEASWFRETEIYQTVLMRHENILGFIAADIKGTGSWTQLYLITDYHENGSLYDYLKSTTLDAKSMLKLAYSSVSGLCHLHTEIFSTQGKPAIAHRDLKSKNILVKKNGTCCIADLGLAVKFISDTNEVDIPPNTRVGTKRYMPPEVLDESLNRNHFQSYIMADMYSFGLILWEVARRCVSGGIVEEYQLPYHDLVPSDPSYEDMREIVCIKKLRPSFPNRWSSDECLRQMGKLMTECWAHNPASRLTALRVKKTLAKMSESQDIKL
UniProt O75716, sequence (O75716 whole entry): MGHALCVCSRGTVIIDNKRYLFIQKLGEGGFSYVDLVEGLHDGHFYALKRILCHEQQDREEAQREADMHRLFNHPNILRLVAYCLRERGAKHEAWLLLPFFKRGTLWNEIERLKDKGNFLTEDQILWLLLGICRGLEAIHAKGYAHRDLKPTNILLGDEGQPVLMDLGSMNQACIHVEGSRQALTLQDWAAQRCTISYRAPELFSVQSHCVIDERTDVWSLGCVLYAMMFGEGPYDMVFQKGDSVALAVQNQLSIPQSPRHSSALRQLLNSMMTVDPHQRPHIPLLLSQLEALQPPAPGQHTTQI
PRKCQ, sequence (Q04759 whole entry, looked up): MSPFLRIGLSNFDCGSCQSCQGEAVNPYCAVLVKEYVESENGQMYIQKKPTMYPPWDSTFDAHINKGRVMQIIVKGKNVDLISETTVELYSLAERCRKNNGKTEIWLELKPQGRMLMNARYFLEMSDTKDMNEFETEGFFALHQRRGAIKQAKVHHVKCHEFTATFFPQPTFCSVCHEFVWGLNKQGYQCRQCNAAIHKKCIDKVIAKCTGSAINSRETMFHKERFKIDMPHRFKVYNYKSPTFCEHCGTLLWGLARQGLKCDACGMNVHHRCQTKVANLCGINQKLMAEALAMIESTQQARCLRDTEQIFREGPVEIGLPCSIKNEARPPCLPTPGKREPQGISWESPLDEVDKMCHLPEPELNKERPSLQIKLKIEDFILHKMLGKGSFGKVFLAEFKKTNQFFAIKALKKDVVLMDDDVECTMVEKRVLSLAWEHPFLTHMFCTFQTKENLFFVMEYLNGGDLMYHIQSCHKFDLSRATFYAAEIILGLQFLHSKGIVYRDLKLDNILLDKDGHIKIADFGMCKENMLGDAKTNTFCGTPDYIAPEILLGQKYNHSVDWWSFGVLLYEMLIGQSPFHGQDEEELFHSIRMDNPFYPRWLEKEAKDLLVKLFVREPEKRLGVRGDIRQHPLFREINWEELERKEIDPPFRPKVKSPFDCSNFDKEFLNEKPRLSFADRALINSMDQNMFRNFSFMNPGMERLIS

Take `Cc1cc(Nc2cc(C(=O)NCCNC(=O)OC3CC/C=C/CCC3)nc(N3CCN(Cc4ccc(S(=O)(=O)F)cc4)CC3)n2)n[nH]1` (configuration not stated): the pIC50 in assay [1], in assay [2] (cell material: Lysate mix), in assay [3] (cell material: Lysate mix), in assay [4] (cell material: Lysate mix), in assay [5] (cell material: Lysate mix) and in assay [6] (cell material: Lysate mix) was below 4.52 throughout. Also, the pIC50 in assay [7] (cell material: Lysate mix) was below 4.52.
Turning to `C#CCNC(=O)c1cc(Nc2cc(C3CC3)[nH]n2)nc(N2CCN(Cc3ccc(S(=O)(=O)F)cc3)CC2)n1`, the pIC50 in assay [1] was 4.78; in assay [2] (cell material: Jurkat cells), 5.98; in assay [2] (cell material: Jurkat lysate), below 4.52; in assay [2] (cell material: Lysate mix) it was 4.81; in assay [3] (cell material: Jurkat lysate), below 4.52; in assay [3] (cell material: Lysate mix) it was below 4.52. Moreover, the pIC50 was 5.42 in assay [4] (cell material: Jurkat cells); below 4.52 in assay [4] (cell material: Jurkat lysate); below 4.52 in assay [4] (cell material: Lysate mix); below 4.52 in assay [5] (cell material: Jurkat lysate); 4.85 in assay [5] (cell material: Lysate mix); 5.82 in assay [6] (cell material: Jurkat cells). Moreover, the pIC50 in assay [6] (cell material: Jurkat lysate) was 4.92; in assay [6] (cell material: Lysate mix) it was 5.32; in assay [7] (cell material: Jurkat cells) it was 5.96; in assay [7] (cell material: Jurkat lysate) it was below 4.52; in assay [7] (cell material: Lysate mix) it was 5.44.
On to `CCNC(=O)c1cc(Nc2cc(C3CC3)[nH]n2)nc(N2CCN(Cc3ccc(S(=O)(=O)F)cc3)CC2)n1`, for which the pIC50 in assay [1] is 5.08; in assay [2] (cell material: Lysate mix) it was 4.93; in assay [3] (cell material: Lysate mix), below 4.52; in assay [4] (cell material: Lysate mix) it was below 4.52; in assay [5] (cell material: Lysate mix), 4.9; in assay [6] (cell material: Lysate mix) it was 5.46. The negative-log IC50 (pIC50) in assay [7] (cell material: Lysate mix) stood at 5.28.
`C#CCNC(=O)c1cc(Nc2cc(C)[nH]n2)nc(N2CCN(Cc3ccc(S(=O)(=O)F)cc3)CC2)n1`: the negative logarithm of the IC50 (pIC50) in assay [1] was below 4.52; in assay [2] (cell material: Lysate mix) it was below 4.52; in assay [3] (cell material: Lysate mix), below 4.52; in assay [4] (cell material: Lysate mix), below 4.52; in assay [5] (cell material: Lysate mix), below 4.52; in assay [6] (cell material: Lysate mix), 4.89. The same molecule yielded a negative-log IC50 (pIC50) in assay [7] (cell material: Lysate mix) of 5.11.
On to `O=C(NCCNC(=O)c1cc(Nc2cc(C3CC3)[nH]n2)nc(N2CCN(Cc3ccc(S(=O)(=O)F)cc3)CC2)n1)OC1CC/C=C/CCC1` (configuration not stated), for which the pIC50 in assay [1] was below 4.52; in assay [2] (cell material: Jurkat cells), 5.44; in assay [2] (cell material: Jurkat lysate), below 4.52; in assay [2] (cell material: Lysate mix), below 4.52; in assay [3] (cell material: Jurkat cells), below 4.52; in assay [3] (cell material: Jurkat lysate) it was below 4.52. Moreover, the pIC50 in assay [3] (cell material: Lysate mix) was below 4.52; in assay [4] (cell material: Jurkat lysate), below 4.52; in assay [4] (cell material: Lysate mix) it was below 4.52; in assay [5] (cell material: Jurkat lysate), below 4.52; in assay [5] (cell material: Lysate mix), below 4.52; in assay [6] (cell material: Jurkat cells) it was 4.81. The pIC50 in assay [6] (cell material: Jurkat lysate) was below 4.52; in assay [6] (cell material: Lysate mix), below 4.52; in assay [7] (cell material: Jurkat cells), 5.86; in assay [7] (cell material: Jurkat lysate), below 4.52; in assay [7] (cell material: Lysate mix) it was below 4.52.
As to `CCNC(=O)c1cc(Nc2cc(C)[nH]n2)nc(N2CCN(Cc3ccc(S(=O)(=O)F)cc3)CC2)n1`, the negative logarithm of the IC50 (pIC50) was below 4.52 in assay [1]; below 4.52 in assay [2] (cell material: Lysate mix); below 4.52 in assay [3] (cell material: Lysate mix); below 4.52 in assay [4] (cell material: Lysate mix); below 4.52 in assay [5] (cell material: Lysate mix); 4.87 in assay [6] (cell material: Lysate mix). In assay [7] (cell material: Lysate mix), this molecule had a pIC50 of 4.87.
